This note sets out measurements from patent US20090312414A1, “Treatment Of Lower Urinary Tract Dysfunction With CB2-Receptor-Selective Agonists” (priority 2008, published 2009).

This assay concerns conscious rats treated with cyclophosphamide. Description: Cystometry in cyclophosphamide-induced model of IC/PBS. The class given is in vivo, rat. The following applies: 10 mg/kg IP; for Bladder capacity (BC): CYP-treated rats. From the text: This study involved the determination of the acute effect of the compound of Formula I on bladder function in conscious rats in the cyclophosphamide-induced model of interstitial cystitis/painful bladder syndrome (“IC/PBS”) using cystometry. The clinical use of cyclophosphamide (“CYP”), a chemotherapy drug that is given as a treatment for many types of cancer, can cause inflammation of the bladder lining, inducing acute hemorrhagic cystitis or chronic cystitis, and result in side effects in the bladder that can be seen in patients with IC/PBS. (Levine L A, Richie J P. Urological complications of cyclophosphamide. J Urol. 1989; 141:1063; Stillwell T J, Benson R C. Cyclophosphamide-induced cystitis. A review of 100 patients. Cancer. 1988; 61:451). The cystitis is not caused by CYP itself, but to acrolein, a toxic CYP metabolite produced by microsomal metabolism that is eliminated by the bladder (Levine L A, Richie J P. Urological complications of cyclophosphamide. J Urol. 1989; 141:1063). In rats, IP administration of CYP induces bladder inflammation and disrupts the urothelial lining, increasing afferent nerve sensitivity and leading to bladder overactivity. Bladder weight is increased due to the inflammation, and bladder capacity is decreased (Corrow K A, Vizzard M A. Phosphorylation of extracellular signal-regulated kinases in urinary bladder in rats with cyclophosphamide-induced cystitis. Am J Physiol. 2007; 293:R125; Lecci A, Birder L A, Meini S, Catalioto R-M, Tramontana M, Giuliani S, Criscuoli M, Maggi C A. Pharmacological evaluation of the role of cyclooxygenase isoenzymes on the micturition reflex following experimental cystitis in rats. Br J Pharmacol. 2000; 130:331).
Male Sprague Dawley rats, weighing 250 g, were maintained under standard laboratory conditions with a 12:12 light/dark cycle and free access to food pellets and water. For surgical procedures, the rats were anesthetized with IP administration of Equinthensin solution (3 ml/kg).
The bladder was exposed via a mid-line incision of the lower abdomen, and the bladder was freed from adhering tissues and emptied. A saline-filled polyethylene catheter (0.58 mm ID and 0.96 mm OD) was implanted in the bladder via an incision at the bladder dome and sutured in place with silk thread. For IV compound administration, a similar PE catheter filled with saline containing sodium heparin (40 IU/ml) was inserted into a jugular vein. The cannulas were exteriorized through a subcutaneous tunnel in the retroscapular area and are connected with a plastic adaptor in order to avoid removal by the animal. […]
Bladder capacity (“BC”) and micturition pressure (“MP”) were the urodynamic parameters evaluated from the cystometrogram. […]

Take `CCCCCCC(C)(C)c1cc(O)c([C@H]2CC(=O)[C@H]3C[C@@H]2C3(C)C)c(OC(=O)/C=C/C(=O)O)c1` [Formula I]: the “Reduction of BC compared to pre-CYP treatment levels” value worked out at 29% (26 hr time point) and 21% (28 hr time point). Further, the “Bladder capacity (BC)” value by setting is: (2 hr post treatment (26 hr time point)) 0.57 ± 0.06 mL; (4 h after administration (28 hr time point)) 0.63 ± 0.09 mL.
